Source: ChEMBL document CHEMBL1649099, “Identification of potent and selective glucosylceramide synthase inhibitors from a library of N-alkylated iminosugars” (ACS Med Chem Lett, 2011)

What was measured:
[1] = molecular target: T1, Ceramide glucosyltransferase (Mus musculus, UniProt O88693); assay: Inhibition of glucosylceramide synthase in mouse RAW cells preincubated with compound for 15 mins by in-situ enzyme inhibition assay; assay type: cell-based
T1 sequence (O88693 whole entry): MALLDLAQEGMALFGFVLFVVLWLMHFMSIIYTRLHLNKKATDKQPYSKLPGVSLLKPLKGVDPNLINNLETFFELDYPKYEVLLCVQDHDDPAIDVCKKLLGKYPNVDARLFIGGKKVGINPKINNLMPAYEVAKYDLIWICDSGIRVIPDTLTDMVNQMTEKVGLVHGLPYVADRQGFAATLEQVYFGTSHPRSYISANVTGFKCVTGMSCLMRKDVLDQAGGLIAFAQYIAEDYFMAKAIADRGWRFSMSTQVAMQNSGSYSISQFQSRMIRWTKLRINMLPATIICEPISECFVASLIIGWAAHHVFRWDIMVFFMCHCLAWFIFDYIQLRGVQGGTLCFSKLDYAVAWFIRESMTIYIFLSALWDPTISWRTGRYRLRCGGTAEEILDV

Beta-glucosidase = molecular target: T2, Beta-glucosidase (Homo sapiens, UniProt Q9HCG7); assay: Inhibition of recombinant GBA2 preincubated with compound for 30 mins using 4-methylumbelliferyl-B-glucoside substrate by fluorimetric assay
T2 sequence (Q9HCG7 whole entry): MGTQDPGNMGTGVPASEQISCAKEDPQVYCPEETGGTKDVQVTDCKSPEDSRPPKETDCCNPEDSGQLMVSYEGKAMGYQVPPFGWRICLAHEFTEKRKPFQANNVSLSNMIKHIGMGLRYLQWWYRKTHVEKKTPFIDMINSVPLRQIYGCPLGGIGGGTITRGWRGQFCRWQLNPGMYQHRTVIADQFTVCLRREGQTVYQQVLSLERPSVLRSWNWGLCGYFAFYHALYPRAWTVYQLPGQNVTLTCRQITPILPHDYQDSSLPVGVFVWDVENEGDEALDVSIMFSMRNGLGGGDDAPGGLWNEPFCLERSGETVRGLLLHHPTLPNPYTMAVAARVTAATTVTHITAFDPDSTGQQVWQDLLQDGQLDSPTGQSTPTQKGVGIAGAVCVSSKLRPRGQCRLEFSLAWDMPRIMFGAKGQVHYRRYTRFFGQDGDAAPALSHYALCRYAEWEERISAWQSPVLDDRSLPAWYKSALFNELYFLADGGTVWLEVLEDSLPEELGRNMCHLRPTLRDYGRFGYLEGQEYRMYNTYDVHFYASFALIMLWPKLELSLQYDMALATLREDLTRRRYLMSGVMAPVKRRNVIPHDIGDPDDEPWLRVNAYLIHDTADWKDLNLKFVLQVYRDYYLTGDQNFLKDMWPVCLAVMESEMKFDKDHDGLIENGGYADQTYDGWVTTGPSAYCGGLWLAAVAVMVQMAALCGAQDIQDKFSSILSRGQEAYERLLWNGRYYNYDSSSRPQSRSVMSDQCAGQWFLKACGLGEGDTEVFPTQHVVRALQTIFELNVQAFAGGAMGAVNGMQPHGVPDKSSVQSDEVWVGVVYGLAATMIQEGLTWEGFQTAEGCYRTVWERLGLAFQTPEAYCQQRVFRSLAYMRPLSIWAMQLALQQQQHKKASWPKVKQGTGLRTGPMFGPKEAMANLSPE

Sucrase-isomaltase = Sucrase-isomaltase (Mus musculus, UniProt B5THE3); assay: Inhibition of sucrase in mouse intestinal […] by glucose release assay
[2] = molecular target: T3, Lysosomal acid glucosylceramidase (Homo sapiens, UniProt P04062); assay: Inhibition of recombinant GBA1 preincubated with compound for 30 mins using 4-methylumbelliferyl-B-glucoside substrate by fluorimetric assay
T3 sequence (P04062 whole entry): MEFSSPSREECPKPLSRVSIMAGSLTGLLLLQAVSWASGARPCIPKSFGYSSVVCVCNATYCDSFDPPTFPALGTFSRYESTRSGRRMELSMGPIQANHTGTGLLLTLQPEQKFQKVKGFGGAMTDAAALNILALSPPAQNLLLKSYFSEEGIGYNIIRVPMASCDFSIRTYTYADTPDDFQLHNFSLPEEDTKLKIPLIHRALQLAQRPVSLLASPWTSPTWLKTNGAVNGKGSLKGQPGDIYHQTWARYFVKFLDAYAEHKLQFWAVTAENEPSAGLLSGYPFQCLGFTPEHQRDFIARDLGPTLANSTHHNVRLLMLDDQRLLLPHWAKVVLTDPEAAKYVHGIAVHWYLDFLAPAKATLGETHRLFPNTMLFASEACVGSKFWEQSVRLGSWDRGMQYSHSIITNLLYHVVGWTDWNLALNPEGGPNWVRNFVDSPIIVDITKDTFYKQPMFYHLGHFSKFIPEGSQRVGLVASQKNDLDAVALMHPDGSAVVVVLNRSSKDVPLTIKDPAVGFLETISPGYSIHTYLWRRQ

Sucrase-isomaltase, sequence (B5THE3 whole entry): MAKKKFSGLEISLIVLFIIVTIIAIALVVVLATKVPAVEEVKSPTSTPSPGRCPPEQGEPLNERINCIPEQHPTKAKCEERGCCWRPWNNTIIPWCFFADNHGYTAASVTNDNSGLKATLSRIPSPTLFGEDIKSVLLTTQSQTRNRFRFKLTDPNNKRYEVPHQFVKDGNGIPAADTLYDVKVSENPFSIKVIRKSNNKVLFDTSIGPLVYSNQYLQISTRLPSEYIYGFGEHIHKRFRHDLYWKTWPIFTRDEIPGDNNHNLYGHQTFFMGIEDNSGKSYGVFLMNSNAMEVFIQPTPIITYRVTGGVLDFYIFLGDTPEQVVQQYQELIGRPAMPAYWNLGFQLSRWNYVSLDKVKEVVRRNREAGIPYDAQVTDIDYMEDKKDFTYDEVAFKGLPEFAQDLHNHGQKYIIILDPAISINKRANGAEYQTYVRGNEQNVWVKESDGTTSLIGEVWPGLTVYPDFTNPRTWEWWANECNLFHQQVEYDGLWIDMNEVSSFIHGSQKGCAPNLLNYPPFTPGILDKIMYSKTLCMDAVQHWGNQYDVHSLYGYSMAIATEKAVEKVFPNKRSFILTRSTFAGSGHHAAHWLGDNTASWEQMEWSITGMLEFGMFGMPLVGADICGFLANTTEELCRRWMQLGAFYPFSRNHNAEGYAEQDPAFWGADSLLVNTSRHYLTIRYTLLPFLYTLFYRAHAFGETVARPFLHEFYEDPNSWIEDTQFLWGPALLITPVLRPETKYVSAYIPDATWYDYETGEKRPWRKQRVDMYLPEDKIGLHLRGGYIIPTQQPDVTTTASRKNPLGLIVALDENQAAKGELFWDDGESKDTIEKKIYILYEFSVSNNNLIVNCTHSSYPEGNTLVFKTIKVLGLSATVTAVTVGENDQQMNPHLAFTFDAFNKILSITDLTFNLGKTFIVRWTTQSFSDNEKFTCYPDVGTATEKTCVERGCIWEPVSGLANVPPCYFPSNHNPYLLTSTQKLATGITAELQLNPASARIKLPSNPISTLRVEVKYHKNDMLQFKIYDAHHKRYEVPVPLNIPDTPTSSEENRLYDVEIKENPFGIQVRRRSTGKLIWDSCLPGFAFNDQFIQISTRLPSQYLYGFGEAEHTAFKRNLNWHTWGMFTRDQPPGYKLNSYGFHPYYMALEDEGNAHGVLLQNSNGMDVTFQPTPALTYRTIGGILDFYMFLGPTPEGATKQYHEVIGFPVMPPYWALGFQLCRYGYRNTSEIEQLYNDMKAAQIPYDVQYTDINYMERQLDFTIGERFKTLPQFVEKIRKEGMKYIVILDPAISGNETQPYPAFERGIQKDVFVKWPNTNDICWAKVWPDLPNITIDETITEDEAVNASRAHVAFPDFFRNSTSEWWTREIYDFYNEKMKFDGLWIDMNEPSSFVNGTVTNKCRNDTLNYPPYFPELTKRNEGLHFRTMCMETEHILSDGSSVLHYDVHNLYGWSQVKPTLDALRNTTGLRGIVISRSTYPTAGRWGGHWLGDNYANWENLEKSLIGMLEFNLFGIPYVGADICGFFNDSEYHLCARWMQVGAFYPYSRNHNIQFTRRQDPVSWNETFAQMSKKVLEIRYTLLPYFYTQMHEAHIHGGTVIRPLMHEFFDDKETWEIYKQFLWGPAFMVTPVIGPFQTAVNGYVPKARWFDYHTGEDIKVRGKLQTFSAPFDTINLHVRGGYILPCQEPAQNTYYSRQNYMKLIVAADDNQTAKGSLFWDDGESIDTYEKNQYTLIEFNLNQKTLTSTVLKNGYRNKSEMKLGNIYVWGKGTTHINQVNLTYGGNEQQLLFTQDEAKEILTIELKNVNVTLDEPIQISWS

Row | IC50 [1] [µM] | IC50 (Beta-glucosidase) [µM] | IC50 (Sucrase-isomaltase) [µM] | IC50 [2] [µM] | Compound
1 | > 20 | 0.4 | 2 | 500 | CCCCCN1C[C@H](O)[C@@H](O)[C@H](O)[C@H]1CO
2 | > 20 | 0.11 | 1 | 80 | CCCCCCN1C[C@H](O)[C@@H](O)[C@H](O)[C@H]1CO
3 | 40 | 0.045 |  | 18.5 | CCCCCCCN1C[C@H](O)[C@@H](O)[C@H](O)[C@H]1CO
4 | 4 | 0.02 | 0.75 | 4 | CCCCCCCCN1C[C@H](O)[C@@H](O)[C@H](O)[C@H]1CO
5 | 15 | 0.25 | > 1000 | > 1000 | CCCCCN1C[C@H](O)[C@@H](O)[C@H](O)[C@@H]1CO
6 | 40 | 0.14 | 600 | > 1000 | CCCCCCN1C[C@H](O)[C@@H](O)[C@H](O)[C@@H]1CO
7 | 4 | 0.04 |  | 700 | CCCCCCCN1C[C@H](O)[C@@H](O)[C@H](O)[C@@H]1CO
8 | 4 | 0.02 | 60 | 25 | CCCCCCCCN1C[C@H](O)[C@@H](O)[C@H](O)[C@@H]1CO
9 |  |  | > 1000 |  | CCCCCCCCCN1C[C@H](O)[C@@H](O)[C@H](O)[C@@H]1CO
10 | 4 | 0.06 | 2 | 30 | CCCCOCCCCCN1C[C@H](O)[C@@H](O)[C@H](O)[C@H]1CO
11 | 2 | 0.04 |  | 705 | CCCCCOCCCCCN1C[C@H](O)[C@@H](O)[C@H](O)[C@H]1CO
12 | 1 | 0.008 |  |  | CCCCCCOCCCCCN1C[C@H](O)[C@@H](O)[C@H](O)[C@H]1CO
13 | 0.3 | 0.015 | 1 | 1.75 | CCCCCCCOCCCCCN1C[C@H](O)[C@@H](O)[C@H](O)[C@H]1CO
14 | 0.2 | 0.01 | 1 | 0.5 | CCCCCCCCOCCCCCN1C[C@H](O)[C@@H](O)[C@H](O)[C@H]1CO
15 | 0.1 |  |  |  | CCCCCCCCCOCCCCCN1C[C@H](O)[C@@H](O)[C@H](O)[C@H]1CO
16 | 2 | 0.09 | > 1000 | > 1000 | CCCCOCCCCCN1C[C@H](O)[C@@H](O)[C@H](O)[C@@H]1CO
17 | 0.15 | 0.015 |  | 100 | CCCCCOCCCCCN1C[C@H](O)[C@@H](O)[C@H](O)[C@@H]1CO
18 | 0.1 | 0.025 |  |  | CCCCCCOCCCCCN1C[C@H](O)[C@@H](O)[C@H](O)[C@@H]1CO
19 | 0.05 | 0.015 | > 1000 | 40 | CCCCCCCOCCCCCN1C[C@H](O)[C@@H](O)[C@H](O)[C@@H]1CO
20 | 0.05 | 0.015 | > 1000 | 15 | CCCCCCCCOCCCCCN1C[C@H](O)[C@@H](O)[C@H](O)[C@@H]1CO
21 | < 0.05 |  |  |  | CCCCCCCCCOCCCCCN1C[C@H](O)[C@@H](O)[C@H](O)[C@@H]1CO
22 |  |  | 0.4 |  | CCCCCCCCCN1C[C@H](O)[C@@H](O)[C@H](O)[C@H]1CO
